Assay [1] has as its system 30 strains of coliform bacilli collected from the living body of humans. Kind of assay: MIC50 and MIC70 against 30 clinical strains, antibiotics alone and combined with present compound. It is filed as cell-based. Particulars: for MIC50: Homo sapiens, 20 h, concentration inhibiting growth of 50% of 30 strains; for MIC70, Present compound as combined with ampicillin: MIC of ampicillin with present compound (10 pg/ml [sic]); for MIC70, Present compound as combined with ampicillin / MIC70, Present compound as combined with cephalexin / MIC70, Present compound as combined with mecillinam / MIC70, Present compound as combined with piperacillin: 70% of 30 strains; for MIC70, Present compound as combined with cephalexin: MIC of cephalexin with present compound (10 pg/ml [sic]); for MIC70, Present compound as combined with mecillinam: MIC of mecillinam with present compound (10 pg/ml [sic]); for MIC70, Present compound as combined with piperacillin: MIC of piperacillin with present compound (10 pg/ml [sic]). The method, then: (§1) The MIC of ampicillin as combined with the present compound (10 µg/ml) was measured against the same bacteria. In the method, the bacteria cultivated in Mueller Hinton Broth (product of DIFCO) and diluted to 10' CFU/ml were inoculated into the same medium containing ampicillin and the present compound in a specific concentration, and incubated at 37°C for 20 hours. […] The bacteria as used in the test were those capable of producing β-lactamase, among which the bacteria marked ^* in the table are those collected from the living body of human hosts and the others are a stock culture.
The compounds of the present invention, ampicillin, mecillinam, piperacillin and cephalexin, each singly used, were also tested for minimal inhibitory concentration against 30 strains of coliform bacilli collected from the living body of humans. The MIC of each antibiotic as combined with the present compound (10 pg/ml) was likewise measured. Table 4 to 7 indicate the results in which MlC50 and MlC70 indicate the minimal inhibitory concentration for inhibiting the growth of 50% and 70% respectively of the strains. The MICs of the present compounds singly used were all more than 25 µg/ml.

In the next assay the test system is P.Mirabilis 121. Kind of assay: MIC by micro-broth dilution method. It is filed as cell-based. The settings on record: Proteus mirabilis, 20 h, Table 2, read-out: MIC, Ampicillin (singly used). The method, then: as §1
(In broth dilution the organism is exposed to a series of concentrations in liquid medium.)

For another assay, the system named is E.coli TH—397. As to the kind of experiment: MIC by micro-broth dilution method. It is filed as cell-based. The settings on record: Escherichia coli, 20 h, Table 2, read-out: MIC, Ampicillin (singly used). How it is done: In the method, the bacteria cultivated in Mueller Hinton Broth (product of DIFCO) and diluted to 10' CFU/ml were inoculated into the same medium containing ampicillin and the present compound in a specific concentration, and incubated at 37°C for 20 hours. […] The bacteria as used in the test were those capable of producing β-lactamase, among which the bacteria marked ^* in the table are those collected from the living body of human hosts and the others are a stock culture.

The subject of the next assay is P.vulgaris IID OX—19. Kind of assay: MIC by micro-broth dilution method. Format: cell-based. Particulars: Proteus vulgaris, 20 h. How it is done: as §1
(§2) The same test as above was carried out to determine the antibacterial activity of the sodium 2β-(4,5-dimethoxycarbonyl-1,2,3-triazole-1-yl)methyl-2a-methylpenam-3a-carboxylate-1,1-dioxide (Compound 26) obtained in Example 24.

The test system of another assay is E.coli TH—13. Kind of assay: MIC by micro-broth dilution method. Particulars: Escherichia coli, 20 h. It is filed as cell-based. How it is done: as §1, §2
The next assay relates to E.coli TH—34. Kind of assay: MIC by micro-broth dilution method. Particulars: Escherichia coli, 20 h, Table 3, inoculate 10^7 CFU/ml, singly used. Format: cell-based. How it is done: as §1, §2
The subject of another assay is P.mirabilis 121—1. Kind of assay: MIC by micro-broth dilution method. Format: cell-based. The settings on record: Proteus mirabilis, 20 h, Table 3, inoculate 10^7 CFU/ml, singly used. The method, then:
as §1, §2

The subject of another assay is S.marcescens TH—05. As to the kind of experiment: MIC by micro-broth dilution method. Format: cell-based. Particulars: Serratia marcescens, 20 h. How it is done:
as §1, §2

The test system of another assay is S.aureus S—54. As to the kind of experiment: MIC by micro-broth dilution method. Format: cell-based. The settings on record: Staphylococcus aureus. The method, then: as §1, §2
A further assay deals with S.aureus ATCC 90124. Kind of assay: MIC by micro-broth dilution method. It is filed as cell-based. The settings on record: Staphylococcus aureus, ATCC90124, 20 h. How it is done:
as §1, §2

The target of assay [2] is penicillinase (β-lactamase) from Bacillus SP. As to the kind of experiment: β-lactamase inhibitory activity by microiodometry, penicillin G as substrate. Particulars: read-out: 50% Inhibitory Concentration. Format: biochemical. How it is done:
The inhibitory activity against penicillinase (β-lactamase) from Bacillus SP was measured by . microiodometry [Tanpakushitsu Kakusan Koso (Protein Nucleic Acid Enzyme), vol. 23, No. 5, pp 391-400 (1978)] using a penicillin G as a substrate.

The target is the same in assay [3]. Kind of assay: β-lactamase inhibitory activity by pH stat method, penicillin G as substrate. Format: biochemical. The settings on record: read-out: 50% β-lactamase inhibitory concentration.
[4] abbreviates: concentration inhibiting growth of 70% of 30 strains.
Setting [5] is: Table 2, read-out: MIC, Ampicillin (singly used).
Where [6] appears, read: Table 3, inoculate 10^7 CFU/ml, singly used, read-out: MIC, Ampicillin.
[7] abbreviates: Table 3, inoculate 10^7 CFU/ml, singly used, read-out: MIC, Comp. 26.

In brackets after ≈: the same amount, converted by molar mass. Read-outs that look alike come from different tables or passages of the source.

As to `CC1(C)S[C@@H]2[C@H](NC(=O)[C@H](N)c3ccccc3)C(=O)N2[C@H]1C(=O)O` [Ampicillin, ampicillin], in assay [1] (read-out: MIC50, Ampicillin singly used), the MIC50 worked out at 400 µg/mL. Further, the “MIC70, Ampicillin singly used” value in assay [1] (setting [4]) was >400 µg/mL. The MIC with P.Mirabilis 121 was > 400 µg/mL; with E.coli TH—397, 400 µg/mL (≈ 1140 µM); with P.vulgaris IID OX—19 (setting [5]) it was 100 µg/mL (≈ 286 µM); with P.vulgaris IID OX—19 (setting [6]), 25 µg/mL (≈ 71.5 µM); with E.coli TH—13 (setting [5]), 400 µg/mL (≈ 1140 µM); in the assay with E.coli TH—13 (setting [6]), 400 µg/mL (≈ 1140 µM). Also, the MIC with E.coli TH—34 (read-out: MIC, Ampicillin) is 800 µg/mL (≈ 2290 µM); with P.mirabilis 121—1 (read-out: MIC, Ampicillin), 800 µg/mL (≈ 2290 µM); with S.marcescens TH—05 (setting [5]) it was > 400 µg/mL; in the assay on S.marcescens TH—05 (setting [6]), 800 µg/mL (≈ 2290 µM); with S.aureus S—54 (20 h, Table 3, inoculate 10^7 CFU/ml, singly used, read-out: MIC, Ampicillin) it was 100 µg/mL (≈ 286 µM); in the assay with S.aureus S—54 (Table 2, 37°C, 20 hours, read-out: MIC, Ampicillin (singly used)), 25 µg/mL (≈ 71.5 µM). The MIC in the assay on S.aureus ATCC 90124 (setting [5]) came to 25 µg/mL (≈ 71.5 µM); in the assay with S.aureus ATCC 90124 (setting [6]), 50 µg/mL (≈ 143 µM).
As for `CC1=C(C(=O)O)N2C(=O)[C@@H](NC(=O)[C@H](N)c3ccccc3)[C@H]2SC1` [Cephalexin, cephalexin, reference compound], in assay [1] (read-out: MIC50, Cephalexin singly used), the MIC50 came to 25 µg/mL. Moreover, the “MIC70, Cephalexin singly used” value in [1] (setting [4]) amounted to 100 µg/mL.
Consider `CCOC(=O)c1cn(C[C@@]2(C)[C@H](C(=O)O)N3C(=O)C[C@H]3S2(=O)=O)nn1` [Compound 7, sodium 2β-(4-ethoxycarbonyl-1,2,3-triazole-1-yl)methyl-2α-methylpenam-3α-caboxylate-1,1-dioxide], for which, in assay [1], the “MIC70, Present compound as combined with ampicillin” value (from here on “MIC70 … with ampicillin”) turned out to be 50 µg/mL; the “MIC70, Present compound as combined with cephalexin” value (shortened to “MIC70 … with cephalexin”) came out at 100 µg/mL; the “MIC70, Present compound as combined with mecillinam” value (“MIC70 … with mecillinam” below) was 0.39 µg/mL; the “MIC70, Present compound as combined with piperacillin” value (from here on “MIC70 … with piperacillin”) was found to be 6.25 µg/mL. In assay [2], the IC50 is 54 nM.
The matching figures for `CCOC(=O)c1cnnn1C[C@@]1(C)[C@H](C(=O)O)N2C(=O)C[C@H]2S1(=O)=O` [Compound 11, sodium 2β-(5-ethoxycarbonyl-1,2,3-triazole-1-yl)methyl-2α-methylpenam-3α-carboxylate-1,1-dioxide]: 100 µg/mL, 100 µg/mL, 0.39 µg/mL, 25 µg/mL and 340 nM.
For `COC(=O)c1cn(C[C@@]2(C)[C@H](C(=O)O)N3C(=O)C[C@H]3S2(=O)=O)nn1` [Compound 12, sodium 2β-(4-methoxycarbonyl-1,2,3-triazole-1-yl)methyl-2a-methylpenam-3α-carboxylate-1,1-dioxide], the IC50 in [2] is 49 nM.
Regarding `COC(=O)c1cnnn1C[C@@]1(C)[C@H](C(=O)O)N2C(=O)C[C@H]2S1(=O)=O` [Compound 13, sodium 2β-(5-methoxycarbonyl-1,2,3-triazote-1-yl)methyl-2α-methylpenam-3α-carboxylate-1,1-dioxide], the IC50 in [2] stood at 300 nM.
For `C[C@]1(Cn2cc(C(=O)O)nn2)[C@H](C(=O)O)N2C(=O)C[C@H]2S1(=O)=O` [Compound 16, dipotassium 2β-(4-carboxy-1,2,3-triazole-1-yl)methyl-2α-methylpenam-3α-carboxylate-1,1-dioxide], in assay [1], the “MIC70 … with ampicillin” value stood at 6.25 µg/mL; the “MIC70 … with cephalexin” value is 25 µg/mL; the “MIC70 … with mecillinam” value worked out at 0.1 µg/mL; the “MIC70 … with piperacillin” value stood at 3.13 µg/mL. Besides, the IC50 in assay [2] came to 600 nM.
For the molecule `C[C@]1(Cn2nncc2C(=O)O)[C@H](C(=O)O)N2C(=O)C[C@H]2S1(=O)=O` [Compound 17, dipotassium 2β-(5-carboxy-1,2,3-triazole-1-yl)methyl-2α-methylpenam-3α-carboxylate-1,1-dioxide], in assay [1], the “MIC70 … with ampicillin” value worked out at 100 µg/mL; the “MIC70 … with cephalexin” value turned out to be 12.5 µg/mL; the “MIC70 … with mecillinam” value turned out to be 0.39 µg/mL; the “MIC70 … with piperacillin” value is 50 µg/mL. Further, the IC50 in assay [2] was 1700 nM.
For `C[C@]1(Cn2ccnn2)[C@H](C(=O)O)N2C(=O)C[C@H]2S1(=O)=O` [Compound 22, sodium 2α-methyl-2β-(1,2,3-triazole-1-yl)-methylpenam-3α-carboxylate-1,1-dioxide], in [1], the “MIC70 … with ampicillin” value is 6.25 µg/mL; the “MIC70 … with cephalexin” value is 50 µg/mL; the “MIC70 … with mecillinam” value turned out to be 0.2 µg/mL; the “MIC70 … with piperacillin” value amounted to 1.56 µg/mL. For the same molecule, the IC50 in assay [2] was found to be 690 nM.
As for `C[C@]1(Cn2cc([Si](C)(C)C)nn2)[C@H](C(=O)O)N2C(=O)C[C@H]2S1(=O)=O` [Compound 24, sodium 2α-methyl-2β-(4-trimethylsilyl-1,2,3-triazole-1-yl)-methylpenam-3α-carboxylate-1,1-dioxide], in assay [2], the IC50 came to 510 nM.
As to `COC(=O)c1nnn(C[C@@]2(C)[C@H](C(=O)O)N3C(=O)C[C@H]3S2(=O)=O)c1C(=O)OC` [Compound 26, sodium 2β-(4,5-dimethoxycarbonyl-1,2,3-triazole-1-yl)-methyl-2α-methylpenam-3α-carboxylate-1,1-dioxide], in assay [3], the IC50 came to 300 nM. Further, the MIC in the assay on P.vulgaris IID OX—19 (setting [7]) was 25 µg/mL; in the assay with E.coli TH—13 (setting [7]) it was > 50 µg/mL; in the assay with E.coli TH—34 (read-out: MIC, Comp. 26), > 50 µg/mL; in the assay with P.mirabilis 121—1 (read-out: MIC, Comp. 26), > 50 µg/mL; in the assay on S.marcescens TH—05 (setting [7]) it was > 50 µg/mL; with S.aureus S—54 (20 h, Table 3, inoculate 10^7 CFU/ml, singly used, read-out: MIC, Comp. 26), > 50 µg/mL. Further, the MIC with S.aureus ATCC 90124 (setting [7]) is > 50 µg/mL.
Regarding `C[C@]1(Cn2nnc(C(=O)O)c2C(=O)O)[C@H](C(=O)O)N2C(=O)C[C@H]2S1(=O)=O` [Compound 39, tri-sodium 2β-(4,5-dicarboxy-1,2,3-triazole-1-yl)methyl-2α-methylpenam-3α-carboxylate-1,1-dioxide], in assay [2], the IC50 was determined as 2300 nM.
On to `CC1(C)S[C@@H]2[C@H](/N=C/N3CCCCCC3)C(=O)N2[C@H]1C(=O)O` [Mecillinam, mecillinam, reference compound], for which the MIC50 in assay [1] (read-out: MIC50, Mecillinam singly used) was 3.13 µg/mL. The “MIC70, Mecillinam singly used” value in assay [1] (setting [4]) worked out at 12.5 µg/mL.
As to `CCN1CCN(C(=O)N[C@@H](C(=O)N[C@@H]2C(=O)N3[C@@H]2SC(C)(C)[C@@H]3C(=O)O)c2ccccc2)C(=O)C1=O` [Piperacillin, piperacillin, reference compound], the MIC50 in [1] (read-out: MIC50, Piperacillin singly used) was 50 µg/mL. Moreover, the “MIC70, Piperacillin singly used” value in [1] (setting [4]) was found to be 200 µg/mL.

As a reminder, the MIC50 is an inhibitory concentration at the 50% level, which refers to growth in some studies and to a panel of isolates in others. The MIC is the lowest concentration found to suppress growth.

The values are drawn from patent EP0097446B1, “Penicillin derivatives and process for preparation of the same” (TAIHO PHARMACEUTICAL COMPANY LIMITED, priority 1982, dated 1984).
